Source: patent US20200339691A1, “PROTEINACEOUS MOLECULES AND USES THEREFOR” (priority 2018, published 2020)
Where a SMILES comes first, the peptide text is derived from it. The star is where a group is joined. Myristoyl = CCCCCCCCCCCCCC(=O)*

How the values were obtained:
[1] = test system: CD44^hiCD24^lo CSCs in MDA-MB-231 cells; assay: FACS analysis of CD44^hiCD24^lo cancer stem cells in MDA-MB-231 cells treated with P1 analogues; type: cell-based, human; details: 50 μM peptide, 48 hours; for CD44^hiCD24^lo CSCs (%) / COI, Live Single CD44^hiCD24^lo CSCs (Cell Count): n = 1; for Average Inhibition of CSCs (%) / CD44^hiCD24^lo CSCs (%) Repeat 1 / CD44^hiCD24^lo CSCs (%) Repeat 2 / CD44^hiCD24^lo CSCs (%) Repeat 3: n = 3
Method: Analogues of P1 (Table 6) were designed and synthesized in accordance with the procedure of Example 5. The ability of these analogues to inhibit cancer stem cells was determined using FACS analysis on MDA-MB-231 cells, which constitutively contain approximately 90% CD44^hiCD24^lo cancer stem cells, treated with the peptides.
(§1) Non-adherent cells were removed during the washing steps.

[2] = test system: MDA-MB-231 cells; type: cell-based, human; details: 50 μM peptide, 48 hours, n = 1;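 as to COI, Live Single Cells (Cell Count): live means Hoechst-negative events among single cells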
Excerpt: as §1

| SMILES | Inhibition of CSCs (%) Repeat 1 [1] | Inhibition of CSCs (%) Repeat 2 [1] | Inhibition of CSCs (%) Repeat 3 [1] | CD44^hiCD24^lo CSCs (%) [1] | COI, Live Single CD44^hiCD24^lo CSCs (Cell Count) [1] | Average Inhibition of CSCs (%) [1] | CD44^hiCD24^lo CSCs (%) Repeat 1 [1] | CD44^hiCD24^lo CSCs (%) Repeat 2 [1] | CD44^hiCD24^lo CSCs (%) Repeat 3 [1] | COI (Cell Count) [2] | COI, Live Single Cells (Cell Count) [2] | COI, Single (Cell Count) [2] | Total Cell Count [2] |
| --- | --- | --- | --- | --- | --- | --- | --- | --- | --- | --- | --- | --- | --- |
| CCCCCCCCCCCCCC(=O)N[C@@H](CC(C)C)C(=O)N[C@H](C(=O)N[C@@H](Cc1ccccc1)C(=O)N[C@H](C(=O)N[C@@H](CCC(=O)O)C(=O)N[C@@H](CCCNC(=N)N)C(=O)N[C@@H](CC(C)C)C(=O)N[C@@H](CCCNC(=N)N)C(=O)N[C@@H](CCCCN)C(=O)NCC(=O)N[C@@H](CCCNC(=N)N)C(=O)N[C@@H](CCSC)C(=O)N[C@@H](CCSC)C(=O)N[C@@H](CC(=O)O)C(=O)N[C@H](C(=O)N[C@@H](CCCCN)C(=O)N[C@@H](CCCCN)C(N)=O)C(C)C)[C@@H](C)CC)[C@@H](C)O [Peptide 2853813, Myristoyl-LTFIERLRKGRMMDVKK-NH2] (Myristoyl-LTFIERLRKGRMMDVKK-NH2) | 77.05% | 75.44% | 67.63% | 27.78% | 5 | 73.37% | 20.57% | 22.04% | 29.05% | 55 | 18 | 48 | 867 |
| CCCCCCCCCCCCCC(=O)N[C@@H](CC(C)C)C(=O)N[C@H](C(=O)N[C@@H](Cc1ccccc1)C(=O)N[C@H](C(=O)N[C@@H](Cc1ccccc1)C(=O)N[C@@H](CCCNC(=N)N)C(=O)N[C@@H](CC(C)C)C(=O)N[C@@H](CCCNC(=N)N)C(=O)N[C@@H](CCCCN)C(=O)NCC(=O)N[C@@H](CCCNC(=N)N)C(=O)N[C@@H](CCSC)C(=O)N[C@@H](CCSC)C(=O)N[C@@H](CC(=O)O)C(=O)N[C@H](C(=O)N[C@@H](CCCCN)C(=O)N[C@@H](CCCNC(=N)N)C(N)=O)C(C)C)[C@@H](C)CC)[C@@H](C)O [Peptide 2853844, Myristoyl-LTFIFRLRKGRMMDVKR-NH2] (Myristoyl-LTFIFRLRKGRMMDVKR-NH2) | 80.13% | 89.73% | 78.08% | 10.61% | 7 | 82.65% | 17.81% | 9.21% | 19.67% | 147 | 66 | 101 | 2094 |
| CCCCCCCCCCCCCC(=O)N[C@@H](CC(C)C)C(=O)N[C@H](C(=O)N[C@@H](Cc1ccccc1)C(=O)N[C@H](C(=O)N[C@@H](Cc1ccccc1)C(=O)N[C@@H](CCCNC(=N)N)C(=O)N[C@@H](CC(C)C)C(=O)N[C@@H](CCCNC(=N)N)C(=O)N[C@@H](CCCCN)C(=O)NCC(=O)N[C@@H](CCCNC(=N)N)C(=O)N[C@@H](CCSC)C(=O)N[C@@H](CCSC)C(=O)N[C@@H](CC(=O)O)C(=O)N[C@H](C(=O)N[C@@H](Cc1ccc(O)cc1)C(=O)N[C@@H](CCCCN)C(N)=O)C(C)C)[C@@H](C)CC)[C@@H](C)O [Peptide 2853843, Myristoyl-LTFIFRLRKGRMMDVYK-NH2] (Myristoyl-LTFIFRLRKGRMMDVYK-NH2) | 87.60% | 82.06% | 90.31% | 7.50% | 6 | 86.66% | 11.11% | 16.09% | 8.70% | 402 | 80 | 298 | 9152 |
